From patent publication US10722514B2 (FLX Bio, Inc., priority 2017, dated 2020)
Where two headings read alike, the source gives them in different places.

Biological target: T1, recombinant full-length USP7 (Homo sapiens, UniProt Q93009)
T1 construct: A 25 μl reaction volume containing recombinant full-length USP7 (62 pM)
Assay: USP7-mediated ubiquitin-rhodamine cleavage assay
Format: biochemical
Conditions: recombinant full-length USP7 62 pM, ubiquitin-rhodamine 100 nM, 1 hour reaction at room temperature
Method in brief: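 IC50 values came from fluorescence measured after a 1 h room-temperature reaction of 62 pM enzyme with 100 nM ubiquitin-rhodamine, following 30 min compound preincubation; fits used four parameters.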

[1] = 30-minute pre-incubation, read-out: Potency (USP7 IC50)
[2] = 30-minute incubation with compound, read-out: Potency: USP7 IC50

T1 sequence (Q93009 whole entry): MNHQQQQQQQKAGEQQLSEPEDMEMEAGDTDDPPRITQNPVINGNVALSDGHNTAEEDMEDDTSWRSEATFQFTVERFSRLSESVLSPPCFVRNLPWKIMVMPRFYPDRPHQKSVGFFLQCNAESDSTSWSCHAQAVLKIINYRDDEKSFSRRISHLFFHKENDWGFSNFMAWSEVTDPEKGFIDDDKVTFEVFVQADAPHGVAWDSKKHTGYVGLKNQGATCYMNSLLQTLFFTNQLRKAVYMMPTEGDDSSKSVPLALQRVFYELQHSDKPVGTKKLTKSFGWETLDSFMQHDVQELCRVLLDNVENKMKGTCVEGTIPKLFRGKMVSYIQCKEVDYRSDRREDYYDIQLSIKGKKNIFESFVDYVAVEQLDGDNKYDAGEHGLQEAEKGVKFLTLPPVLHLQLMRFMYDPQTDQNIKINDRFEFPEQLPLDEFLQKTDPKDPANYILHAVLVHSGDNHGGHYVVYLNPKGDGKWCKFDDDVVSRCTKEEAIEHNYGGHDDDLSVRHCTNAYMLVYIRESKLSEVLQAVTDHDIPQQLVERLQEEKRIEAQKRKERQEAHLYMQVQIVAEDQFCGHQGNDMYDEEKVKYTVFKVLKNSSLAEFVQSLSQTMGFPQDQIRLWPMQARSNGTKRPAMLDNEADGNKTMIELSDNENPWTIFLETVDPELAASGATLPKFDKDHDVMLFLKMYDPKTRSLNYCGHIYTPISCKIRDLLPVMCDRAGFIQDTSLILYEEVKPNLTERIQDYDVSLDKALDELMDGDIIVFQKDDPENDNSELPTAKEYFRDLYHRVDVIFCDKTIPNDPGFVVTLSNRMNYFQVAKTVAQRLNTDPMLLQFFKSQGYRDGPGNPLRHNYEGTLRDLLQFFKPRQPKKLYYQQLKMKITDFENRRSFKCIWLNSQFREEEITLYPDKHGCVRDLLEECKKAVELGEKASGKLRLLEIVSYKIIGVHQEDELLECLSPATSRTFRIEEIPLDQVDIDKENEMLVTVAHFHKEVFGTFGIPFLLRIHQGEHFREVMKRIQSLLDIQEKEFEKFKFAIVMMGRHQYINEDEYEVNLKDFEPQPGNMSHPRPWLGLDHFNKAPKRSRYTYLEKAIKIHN

Compound	IC50 [1]	IC50 [2]
Cc1cc(Cl)cc(-c2ccnc3cc(Cn4c(=O)ccn(C)c4=O)sc23)c1O[C@@H]1CN(CCO)C[C@@H]1F [Example 467, 3-[[7-[5-chloro-2-[(3R,4S)-4-fluoro-1-(2-hydroxyethyl)pyrrolidin-3-yl]oxy-3-methyl-phenyl]thieno[3,2-b]pyridin-2-yl]methyl]-1-methyl-pyrimidine-2,4-dione; 2,2,2-trifluoroacetic acid]	< 1000 nM	
Cc1cc(Cl)cc(-c2ccnc3cc(CN4C(=O)CCC4=O)sc23)c1OC1CCN(C2COC2)CC1 [Example 207, 1-((7-(5-Chloro-3-methyl-2-((1-(oxetan-3-yl)piperidin-4-yl)oxy)phenyl)thieno[3,2-b]pyridin-2-yl)methyl)pyrrolidine-2,5-dione]		1000 to 10000 nM
Cc1cc(C#N)cc(-c2ccnc3cc(Cn4c(=O)ccn(C)c4=O)sc23)c1OC1CCNCC1 [Example 454, 3-methyl-5-[2-[(3-methyl-2,6-dioxo-pyrimidin-1-yl)methyl]thieno[3,2-b]pyridin-7-yl]-4-(4-piperidyloxy)benzonitrile]	< 1000 nM	
Cc1cc(Cl)cc(-c2ccnc3ccsc23)c1OC1CCNC1=O (stereo not drawn) [Example 79, 3-(4-chloro-2-methyl-6-(thieno[3,2-b]pyridin-7-yl)phenoxy)pyrrolidin-2-one]		> 30000 nM
Cc1cc(Cl)cc(-c2ncnc3cc(Cn4c(=O)ccn(C(C)C)c4=O)sc23)c1O[C@H]1CCCNC1 [Example 489, 3-[[4-[5-chloro-3-methyl-2-[[(3S)-3-piperidyl]oxy]phenyl]thieno[3,2-d]pyrimidin-6-yl]methyl]-1-isopropyl-pyrimidine-2,4-dione]	< 1000 nM	
Cc1cc(Cl)cc(-c2ccnc3cc(CO)sc23)c1O[C@@H]1CN[C@H](C(C)(C)O)C1 [Example 72, 2-((2S,4S)-4-(4-Chloro-2-(2-(hydroxymethyl)thieno[3,2-b]pyridin-7-yl)-6-methylphenoxy)pyrrolidin-2-yl)propan-2-ol]		1000 to 10000 nM
Cc1cc(Cl)cc(-c2ccnc3cc(CN4C(=O)C5CC5C4=O)sc23)c1O[C@H]1CC[C@H](C)NC1 (stereo partly drawn) [Example 305, 3-[[7-[5-chloro-3-methyl-2-[[(3S,6S)-6-methyl-3-piperidyl]oxy]phenyl]thieno[3,2-b]pyridin-2-yl]methyl]-3-azabicyclo[3.1.0]hexane-2,4-dione; 2,2,2-trifluoroacetic acid]		< 1000 nM
Cc1cc(Cl)cc(-c2ccnc3cc(Cn4c(=O)ccn(CC(F)(F)F)c4=O)sc23)c1O[C@@H]1CNC[C@@H]1C [Example 625, 3-[[7-[5-chloro-3-methyl-2-[(3S,4S)-4-methylpyrrolidin-3-yl]oxy-phenyl]thieno[3,2-b]pyridin-2-yl]methyl]-1-(2,2,2-trifluoroethyl)pyrimidine-2,4-dione]	< 1000 nM	
O=C1CCC(=O)N1Cc1cc2nccc(-c3cc(Cl)cc(C(F)F)c3O[C@@H]3CNC[C@@H]3F)c2s1 [Example 428, 1-[[7-[5-chloro-3-(difluoromethyl)-2-[(3R,4S)-4-fluoropyrrolidin-3-yl]oxy-phenyl]thieno[3,2-b]pyridin-2-yl]methyl]pyrrolidine-2,5-dione]	< 1000 nM	
Cc1cc(Cl)cc(-c2ccnc3cc(Cn4c(=O)ccn(CC(F)(F)F)c4=O)sc23)c1OC1CNC1 [Example 61, 3-((7-(2-(Azetidin-3-yloxy)-5-chloro-3-methylphenyl)thieno[3,2-b]pyridin-2-yl)methyl)-1-(2,2,2-trifluoroethyl)pyrimidine-2,4(1H,3H)-dione]		< 1000 nM
Cc1cc(Cl)cc(-c2ccnc3cc(Cn4c(=O)ccn(CC(F)(F)F)c4=O)sc23)c1O[C@@H]1CC[C@@H](N)C1 [Example 59, 3-((7-(2-(((1R,3R)-3-Aminocyclopentyl)oxy)-5-chloro-3-methylphenyl)thieno[3,2-b]pyridin-2-yl)methyl)-1-(2,2,2-trifluoroethyl)pyrimidine-2,4(1H,3H)-dione]		< 1000 nM
Cc1cc(Cl)cc(-c2ccnc3cc(Cn4c(=O)ccn(CC(F)(F)F)c4=O)sc23)c1O[C@H]1CC[C@H](C)NC1 [Example 598, 3-[[7-[5-chloro-3-methyl-2-[[(3S,6S)-6-methyl-3-piperidyl]oxy]phenyl]thieno[3,2-b]pyridin-2-yl]methyl]-1-(2,2,2-trifluoroethyl)pyrimidine-2,4-dione; 2,2,2-trifluoroacetic acid]	< 1000 nM	
CCC(O)c1cc2nccc(-c3cc(C#N)cc(C)c3OCC3(C)CNC3)c2s1 (stereo not drawn) [Example 31, 3-(2-(1-Hydroxypropyl)thieno[3,2-b]pyridin-7-yl)-5-methyl-4-((3-methylazetidin-3-yl)methoxy)benzonitrile]		1000 to 10000 nM
Cc1cc(Cl)cc(-c2ccnc3cc(CN4C(=O)CCC4=O)sc23)c1OC1CC[C@@H](C)NC1 (stereo partly drawn) [Example 463, 1-[[7-[5-chloro-3-methyl-2-[[(6R)-6-methyl-3-piperidyl]oxy]phenyl]thieno[3,2-b]pyridin-2-yl]methyl]pyrrolidine-2,5-dione; 2,2,2-trifluoroacetic acid]	< 1000 nM	
CCC(O)c1cc2nccc(-c3cc(Cl)cc(C)c3OCC3(C#N)CNC3)c2s1 (stereo not drawn) [Example 39, 3-((4-Chloro-2-(2-(1-hydroxypropyl)thieno[3,2-b]pyridin-7-yl)-6-methylphenoxy)methyl)azetidine-3-carbonitrile]		< 1000 nM
Cc1cc(Cl)cc(-c2ccnc3cc(Cn4c(=O)ccn(CC(F)(F)F)c4=O)sc23)c1O[C@@H]1CCN(Cc2cnoc2)C[C@@H]1C [Example 648, 3-[[7-[5-chloro-2-[[(3S,4R)-1-(isoxazol-4-ylmethyl)-3-methyl-4-piperidyl]oxy]-3-methyl-phenyl]thieno[3,2-b]pyridin-2-yl]methyl]-1-(2,2,2-trifluoroethyl)pyrimidine-2,4-dione]	< 1000 nM	
CC[C@@H](c1cc2nccc(-c3cc(Cl)cc(C)c3O[C@H]3CCCNC3)c2s1)N1C(=O)CCC1=O [Example 257, 1-((S)-1-(7-(5-Chloro-3-methyl-2-(((S)-piperidin-3-yl)oxy)phenyl)thieno[3,2-b]pyridin-2-yl)propyl)pyrrolidine-2,5-dione]		< 1000 nM
COC(=O)[C@H]1C[C@H](Oc2c(C)cc(Cl)cc2-c2ccnc3cc(Cn4c(=O)ccn(CC(F)(F)F)c4=O)sc23)CN1 [Example 653, methyl (2R,4S)-4-[4-chloro-2-[2-[[2,6-dioxo-3-(2,2,2-trifluoroethyl)pyrimidin-1-yl]methyl]thieno[3,2-b]pyridin-7-yl]-6-methyl-phenoxy]pyrrolidine-2-carboxylate]	< 1000 nM	
Cn1ccc(=O)n(Cc2cc3nccc(-c4cc(Cl)cc(C(F)F)c4O[C@H]4CCCNC4)c3s2)c1=O [Example 498, 3-[[7-[5-chloro-3-(difluoromethyl)-2-[[(3S)-3-piperidyl]oxy]phenyl]thieno[3,2-b]pyridin-2-yl]methyl]-1-methyl-pyrimidine-2,4-dione]	< 1000 nM	
Cc1cc(Cl)cc(-c2ncnc3cc(Cn4c(=O)ccn(CC(F)(F)F)c4=O)sc23)c1O[C@H]1CCCNC1 [Example 517]	< 1000 nM	
CCC(O)c1cc2nccc(-c3cc(Cl)cc(C)c3OCC3CN(C)C3)c2s1 (stereo not drawn) [Example 3, 1-(7-(5-Chloro-3-methyl-2-((1-methylazetidin-3-yl)methoxy)phenyl)thieno[3,2-b]pyridin-2-yl)propan-1-ol]		10000 to 30000 nM
